Laboratory results taken from the CheMixHub viscosity set.

Test: xn = mol fraction of the nth substance listed
Settings: 100 kPa

NCCCN + OCCCO
viscosity [mPa·s]
Settings | 293.15 K | 298.15 K | 303.15 K | 308.15 K | 313.15 K | 318.15 K
x2 = 0.0488 | 2.48 | 2.207 | 1.884 | 1.707 | 1.513 | 1.454
x2 = 0.0977 | 3.266 | 2.887 | 2.418 | 2.17 | 1.888 | 1.837
x2 = 0.1467 | 4.261 | 3.71 | 3.095 | 2.765 | 2.395 | 2.296
x2 = 0.1958 | 5.561 | 5.116 | 3.988 | 3.529 | 3.071 | 2.924
x2 = 0.2451 | 7.784 | 6.598 | 5.35 | 4.639 | 3.944 | 3.722
x2 = 0.2945 | 10.96 | 9.104 | 7.198 | 6.175 | 5.145 | –
x2 = 0.3441 | 15.12 | 12.35 | 9.637 | 8.272 | 6.698 | –
x2 = 0.3937 | 20.61 | 16.58 | 12.78 | 10.64 | 8.698 | –
x2 = 0.4435 | 27.49 | 22.54 | 17.07 | 14.02 | 11.29 | –
x2 = 0.4934 | 37.54 | 29.33 | 21.87 | 17.83 | 14.16 | –
x2 = 0.5435 | 48.19 | 37.19 | 27.63 | 22.21 | 17.49 | –
x2 = 0.5937 | 59.37 | 45.53 | 33.45 | 26.75 | 20.06 | –
x2 = 0.644 | 68.67 | 52.73 | 38.69 | 30.9 | 24.13 | –
x2 = 0.6945 | 75.47 | 57.65 | 42.48 | 34 | 26.62 | –
x2 = 0.745 | 77.45 | 60.06 | 44.62 | 35.77 | 28.05 | –
x2 = 0.7958 | 76.36 | 59.6 | 44.73 | 36.13 | 28.42 | –
x2 = 0.8466 | 71.94 | 56.84 | 42.88 | 34.89 | 27.77 | –
x2 = 0.8976 | 66.38 | 52.57 | 40 | 32.8 | 26.28 | –
x2 = 0.9487 | 59.47 | 47.41 | 36.34 | 30.05 | 24.3 | –
